Laboratory results from ChEMBL document CHEMBL3885861, “Open TG-GATES”.

Species: Rattus norvegicus
Assay: Open TG-GATES - Regimen: Daily Repeat
Type: toxicity, organism-based, Sprague-Dawley
Parameters: regimen Daily Repeat, gender Male, age 6 weeks
Details: in vivo, po, route gavage; for APTT / Bas / Eos / Fbg / Hb / Ht / Lym / MCH / MCHC / Mono / Neu / Plat / RBC / Ret: tissue Blood; for KIDNEY_L / KIDNEY_R / KIDNEY_TOTAL: tissue Kidney; for LIVER: tissue Liver; for ALP / ALT / AST / BUN / CRE / Ca / Cl / DBIL / GLC / IP / K / LDH / Na / PL / RALB / TBIL / TC / TG / TP / gamma-GTP: tissue Plasma
[1] = 0 mg/kg, 72 h, dose level Control, time 3 day
[2] = 0 mg/kg, […], dose level Control, time 7 day
[3] = 0 mg/kg, […], dose level Control, time 14 day
[4] = 0 mg/kg, […], dose level Control, time 28 day
[5] = 3 mg/kg, 72 h, dose level Low, time 3 day
[6] = 3 mg/kg, […], dose level Low, time 7 day
[7] = 3 mg/kg, […], dose level Low, time 14 day
[8] = 3 mg/kg, […], dose level Low, time 28 day

O=C(CCCN1CCC(O)(c2ccc(Cl)cc2)CC1)c1ccc(F)cc1 [HALOPERIDOL]
TERMINAL_BW [1]: 226.4 g
APTT [1]: 16.5 s
Bas [1]: 0%
Eos [1]: 0.2%
Fbg [1]: 223.2 mg/dL
Hb [1]: 13.8 g/dL
Ht [1]: 41.1%
Lym [1]: 84.4%
MCH [1]: 21.8 pg
MCHC [1]: 33.6%
Mono [1]: 4%
Neu [1]: 11.4%
Plat [1]: 119.4 x10_4/uL
RBC [1]: 632.8 x10_4/ul
Ret [1]: 7.7%
KIDNEY_L [1]: 1 g
KIDNEY_R [1]: 1 g
KIDNEY_TOTAL [1]: 2 g
LIVER [1]: 11.1 g
ALP [1]: 915.2 IU/L
ALT [1]: 38 IU/L
AST [1]: 59.6 IU/L
BUN [1]: 19.2 mg/dL
CRE [1]: 0.6 mg/dL
Ca [1]: 11.2 mg/dL
Cl [1]: 105.8 meq/L
DBIL [1]: 0 mg/dL
GLC [1]: 191.2 mg/dL
IP [1]: 8.4 mg/dL
K [1]: 4.9 meq/L
LDH [1]: 91.8 IU/L
Na [1]: 139.2 meq/L
PL [1]: 166.2 mg/dL
RALB [1]: 4 g/dL
TBIL [1]: 0.2 mg/dL
TC [1]: 88 mg/dL
TG [1]: 96.6 mg/dL
TP [1]: 6 g/dL
gamma-GTP [1]: 1.6 IU/L
TERMINAL_BW [2]: 261.8 g
TERMINAL_BW [3]: 307.2 g
TERMINAL_BW [4]: 396.3 g
APTT [2]: 16.9 s
Bas [2]: 0%
Eos [2]: 0.8%
Fbg [2]: 216.4 mg/dL
Hb [2]: 13.9 g/dL
Ht [2]: 41.8%
Lym [2]: 80.4%
MCH [2]: 21.2 pg
MCHC [2]: 33.3%
Mono [2]: 4.8%
Neu [2]: 14%
Plat [2]: 104.8 x10_4/uL
RBC [2]: 658 x10_4/ul
Ret [2]: 5.8%
APTT [3]: 16.2 s
Bas [3]: 0%
Eos [3]: 0.2%
Fbg [3]: 224.2 mg/dL
Hb [3]: 14.6 g/dL
Ht [3]: 43.8%
Lym [3]: 78.4%
MCH [3]: 20.4 pg
MCHC [3]: 33.3%
Mono [3]: 5.2%
Neu [3]: 16.2%
Plat [3]: 107.4 x10_4/uL
RBC [3]: 716 x10_4/ul
Ret [3]: 3.7%
APTT [4]: 16.6 s
Bas [4]: 0%
Eos [4]: 0.8%
Fbg [4]: 235.8 mg/dL
Hb [4]: 15.1 g/dL
Ht [4]: 45.3%
Lym [4]: 80.8%
MCH [4]: 19.2 pg
MCHC [4]: 33.4%
Mono [4]: 5.8%
Neu [4]: 12.6%
Plat [4]: 105.5 x10_4/uL
RBC [4]: 787.6 x10_4/ul
Ret [4]: 3%
KIDNEY_L [2]: 1.1 g
KIDNEY_R [2]: 1.1 g
KIDNEY_TOTAL [2]: 2.1 g
KIDNEY_L [3]: 1.2 g
KIDNEY_R [3]: 1.2 g
KIDNEY_TOTAL [3]: 2.4 g
KIDNEY_L [4]: 1.4 g
KIDNEY_R [4]: 1.4 g
KIDNEY_TOTAL [4]: 2.8 g
LIVER [2]: 12.9 g
LIVER [3]: 14 g
LIVER [4]: 16.7 g
ALP [2]: 874.8 IU/L
ALT [2]: 33.4 IU/L
AST [2]: 59.4 IU/L
BUN [2]: 20.2 mg/dL
CRE [2]: 0.5 mg/dL
Ca [2]: 11.2 mg/dL
Cl [2]: 104.8 meq/L
DBIL [2]: 0.006 mg/dL
GLC [2]: 196 mg/dL
IP [2]: 7.4 mg/dL
K [2]: 4.6 meq/L
LDH [2]: 93 IU/L
Na [2]: 138.8 meq/L
PL [2]: 169.8 mg/dL
RALB [2]: 3.9 g/dL
TBIL [2]: 0.3 mg/dL
TC [2]: 83 mg/dL
TG [2]: 134.4 mg/dL
TP [2]: 5.9 g/dL
gamma-GTP [2]: 1.8 IU/L
ALP [3]: 784.8 IU/L
ALT [3]: 32.6 IU/L
AST [3]: 62.4 IU/L
BUN [3]: 21.2 mg/dL
CRE [3]: 0.5 mg/dL
Ca [3]: 10.7 mg/dL
Cl [3]: 106.8 meq/L
DBIL [3]: 0.01 mg/dL
GLC [3]: 195.4 mg/dL
IP [3]: 7.4 mg/dL
K [3]: 4.8 meq/L
LDH [3]: 93.2 IU/L
Na [3]: 138.2 meq/L
PL [3]: 161.2 mg/dL
RALB [3]: 3.9 g/dL
TBIL [3]: 0.3 mg/dL
TC [3]: 76.2 mg/dL
TG [3]: 149 mg/dL
TP [3]: 6.2 g/dL
gamma-GTP [3]: 1.4 IU/L
ALP [4]: 558 IU/L
ALT [4]: 30.4 IU/L
AST [4]: 58.8 IU/L
BUN [4]: 22.2 mg/dL
CRE [4]: 0.6 mg/dL
Ca [4]: 11.1 mg/dL
Cl [4]: 105 meq/L
DBIL [4]: 0.052 mg/dL
GLC [4]: 177.4 mg/dL
IP [4]: 7.8 mg/dL
K [4]: 4.6 meq/L
LDH [4]: 79.4 IU/L
Na [4]: 140 meq/L
PL [4]: 160.8 mg/dL
RALB [4]: 4.1 g/dL
TBIL [4]: 0.2 mg/dL
TC [4]: 75.2 mg/dL
TG [4]: 176.2 mg/dL
TP [4]: 6.6 g/dL
gamma-GTP [4]: 1.6 IU/L
TERMINAL_BW [5]: 219.6 g
APTT [5]: 16 s
Bas [5]: 0%
Eos [5]: 1.4%
Fbg [5]: 210 mg/dL
Hb [5]: 14.1 g/dL
Ht [5]: 42.1%
Lym [5]: 75.8%
MCH [5]: 21.4 pg
MCHC [5]: 33.5%
Mono [5]: 5%
Neu [5]: 17.8%
Plat [5]: 113.5 x10_4/uL
RBC [5]: 658.8 x10_4/ul
Ret [5]: 6.6%
KIDNEY_L [5]: 0.9 g
KIDNEY_R [5]: 0.9 g
KIDNEY_TOTAL [5]: 1.9 g
LIVER [5]: 10.7 g
ALP [5]: 995 IU/L
ALT [5]: 39.6 IU/L
AST [5]: 62 IU/L
BUN [5]: 21 mg/dL
CRE [5]: 0.5 mg/dL
Ca [5]: 11.3 mg/dL
Cl [5]: 106.2 meq/L
DBIL [5]: 0 mg/dL
GLC [5]: 183.6 mg/dL
IP [5]: 7.9 mg/dL
K [5]: 4.8 meq/L
LDH [5]: 76.4 IU/L
Na [5]: 138.6 meq/L
PL [5]: 195.4 mg/dL
RALB [5]: 4 g/dL
TBIL [5]: 0.2 mg/dL
TC [5]: 93.6 mg/dL
TG [5]: 112 mg/dL
TP [5]: 6 g/dL
gamma-GTP [5]: 1.4 IU/L
TERMINAL_BW [6]: 256.9 g
TERMINAL_BW [7]: 298.2 g
TERMINAL_BW [8]: 375.7 g
APTT [6]: 16.5 s
Bas [6]: 0%
Eos [6]: 0.2%
Fbg [6]: 217 mg/dL
Hb [6]: 14.3 g/dL
Ht [6]: 42.9%
Lym [6]: 79.2%
MCH [6]: 21.1 pg
MCHC [6]: 33.4%
Mono [6]: 4.4%
Neu [6]: 16.2%
Plat [6]: 100.7 x10_4/uL
RBC [6]: 678.4 x10_4/ul
Ret [6]: 5.1%
APTT [7]: 17.2 s
Bas [7]: 0%
Eos [7]: 0.8%
Fbg [7]: 226.4 mg/dL
Hb [7]: 15.1 g/dL
Ht [7]: 45.1%
Lym [7]: 76.6%
MCH [7]: 20.9 pg
MCHC [7]: 33.6%
Mono [7]: 5.2%
Neu [7]: 17.4%
Plat [7]: 108.9 x10_4/uL
RBC [7]: 723.2 x10_4/ul
Ret [7]: 4%
APTT [8]: 17.3 s
Bas [8]: 0%
Eos [8]: 0%
Fbg [8]: 223.4 mg/dL
Hb [8]: 15.2 g/dL
Ht [8]: 45.4%
Lym [8]: 84.4%
MCH [8]: 19.4 pg
MCHC [8]: 33.5%
Mono [8]: 2.4%
Neu [8]: 13.2%
Plat [8]: 99.3 x10_4/uL
RBC [8]: 782.4 x10_4/ul
Ret [8]: 2.3%
KIDNEY_L [6]: 1 g
KIDNEY_R [6]: 1.1 g
KIDNEY_TOTAL [6]: 2.1 g
KIDNEY_L [7]: 1.2 g
KIDNEY_R [7]: 1.2 g
KIDNEY_TOTAL [7]: 2.4 g
KIDNEY_L [8]: 1.3 g
KIDNEY_R [8]: 1.2 g
KIDNEY_TOTAL [8]: 2.5 g
LIVER [6]: 12.2 g
LIVER [7]: 13.3 g
LIVER [8]: 14.9 g
ALP [6]: 845.6 IU/L
ALT [6]: 33.2 IU/L
AST [6]: 61.4 IU/L
BUN [6]: 19.2 mg/dL
CRE [6]: 0.6 mg/dL
Ca [6]: 11.6 mg/dL
Cl [6]: 106.8 meq/L
DBIL [6]: 0 mg/dL
GLC [6]: 187.8 mg/dL
IP [6]: 7.7 mg/dL
K [6]: 4.6 meq/L
LDH [6]: 93.4 IU/L
Na [6]: 138.4 meq/L
PL [6]: 162 mg/dL
RALB [6]: 4 g/dL
TBIL [6]: 0.2 mg/dL
TC [6]: 74.6 mg/dL
TG [6]: 132 mg/dL
TP [6]: 6.1 g/dL
gamma-GTP [6]: 1.4 IU/L
ALP [7]: 747.6 IU/L
ALT [7]: 28.2 IU/L
AST [7]: 63.2 IU/L
BUN [7]: 20 mg/dL
CRE [7]: 0.5 mg/dL
Ca [7]: 11 mg/dL
Cl [7]: 106.4 meq/L
DBIL [7]: 0.01 mg/dL
GLC [7]: 178.4 mg/dL
IP [7]: 6.8 mg/dL
K [7]: 4.7 meq/L
LDH [7]: 89.6 IU/L
Na [7]: 137.8 meq/L
PL [7]: 144.8 mg/dL
RALB [7]: 4 g/dL
TBIL [7]: 0.3 mg/dL
TC [7]: 62.2 mg/dL
TG [7]: 144.2 mg/dL
TP [7]: 6.3 g/dL
gamma-GTP [7]: 1.8 IU/L
ALP [8]: 579.4 IU/L
ALT [8]: 62.6 IU/L
AST [8]: 58.8 IU/L
BUN [8]: 20.8 mg/dL
CRE [8]: 0.6 mg/dL
Ca [8]: 10.9 mg/dL
Cl [8]: 107.6 meq/L
DBIL [8]: 0.054 mg/dL
GLC [8]: 178.6 mg/dL
IP [8]: 6.7 mg/dL
K [8]: 4.5 meq/L
LDH [8]: 76.2 IU/L
Na [8]: 139 meq/L
PL [8]: 145 mg/dL
RALB [8]: 4.1 g/dL
TBIL [8]: 0.2 mg/dL
TC [8]: 62.8 mg/dL
TG [8]: 187.4 mg/dL
TP [8]: 6.6 g/dL
gamma-GTP [8]: 1.4 IU/L
